Laboratory results: PMC6881182 (Nature microbiology, 2019)

What was measured:
[1] = target: RgNanOx (RUMGNA_02695), oxidoreductase (Mediterraneibacter gnavus, UniProt A7B558); assay: HPLC of DMB-labelled product with and without cofactor; assay type: biochemical
[2] = target: EcNanA (E. coli Neu5Ac lyase/aldolase) (Escherichia coli, UniProt P0A6L4); assay: lactate dehydrogenase-coupled aldolase assay; assay type: biochemical
[3] = target: T1, RgNanA (RUMGNA_02692), sialic acid aldolase (Mediterraneibacter gnavus, UniProt A7B555, K177A); assay: X-ray crystal structure; assay type: binding
T1 sequence (A7B555 11-315 K177A): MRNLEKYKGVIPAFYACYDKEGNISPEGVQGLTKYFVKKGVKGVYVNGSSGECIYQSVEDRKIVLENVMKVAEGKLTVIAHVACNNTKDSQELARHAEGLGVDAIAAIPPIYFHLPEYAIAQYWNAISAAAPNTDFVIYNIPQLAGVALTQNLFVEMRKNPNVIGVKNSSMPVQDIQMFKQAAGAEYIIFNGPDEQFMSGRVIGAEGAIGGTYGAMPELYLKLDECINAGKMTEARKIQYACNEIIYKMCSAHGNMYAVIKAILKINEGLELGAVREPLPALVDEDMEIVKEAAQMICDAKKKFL

[4] = tested on: CC(=O)N[C@H]1[C@H]2O[C@@](C(=O)O)(C[C@@H]1O)O[C@@H]2[C@H](O)CO; assay: purified protein; settings: NAD+ or NADH
purified protein = substrate: CC(=O)N[C@@H]1[C@@H](O)CC(O)(C(=O)O)O[C@H]1C(O)C(O)CO; assay: purified protein

Molecule: NC(=O)C1=CN([C@@H]2O[C@H](COP(=O)(O)OP(=O)(O)OC[C@H]3O[C@@H](n4cnc5c(N)ncnc54)[C@H](O)[C@@H]3O)[C@@H](O)[C@H]2O)C=CC1 [NADH]
- HPLC of DMB-labelled product with and without cofactor (500 μM) [1]: Neu5Ac was produced in the presence of NAD^+ or NADH, but not in the presence of FAD

Molecule: NC(=O)c1ccc[n+]([C@@H]2O[C@H](COP(=O)([O-])OP(=O)(O)OC[C@H]3O[C@@H](n4cnc5c(N)ncnc54)[C@H](O)[C@@H]3O)[C@@H](O)[C@H]2O)c1 [NAD^+]
- HPLC of DMB-labelled product with and without cofactor (500 μM) [1]: Neu5Ac was produced in the presence of NAD^+ or NADH, but not in the presence of FAD

Molecule: CC(=O)N[C@@H]1[C@@H](O)CC(O)(C(=O)O)O[C@H]1C(O)C(O)CO (stereo partly drawn) [Neu5Ac]
- lactate dehydrogenase-coupled aldolase assay (control enzyme) [2]: RgNanA and EcNanA (E. coli Neu5Ac lyase/aldolase used as a control) showed activity against Neu5Ac
- X-ray crystal structure (5 mM Neu5Ac soak of inactive mutant) [3]: complex between an inactive mutant, RgNanA K167A, and Neu5Ac showed Neu5Ac in the open-chain ketone form

Molecule: RgNanOx (RUMGNA_02695), oxidoreductase (Mediterraneibacter gnavus ATCC 29149)
- Km [4]: 74 ± 14 µM

B1: RgNanA (RUMGNA_02692), sialic acid aldolase (Mediterraneibacter gnavus ATCC 29149) (protein)
chain: MAFMKQRSKTMRNLEKYKGVIPAFYACYDKEGNISPEGVQGLTKYFVKKGVKGVYVNGSSGECIYQSVEDRKIVLENVMKVAEGKLTVIAHVACNNTKDSQELARHAEGLGVDAIAAIPPIYFHLPEYAIAQYWNAISAAAPNTDFVIYNIPQLAGVALTQNLFVEMRKNPNVIGVKNSSMPVQDIQMFKQAAGAEYIIFNGPDEQFMSGRVIGAEGAIGGTYGAMPELYLKLDECINAGKMTEARKIQYACNEIIYKMCSAHGNMYAVIKAILKINEGLELGAVREPLPALVDEDMEIVKEAAQMICDAKKKFL
- Km (purified protein): 1473 ± 98 µM
